From patent publication US20070265289A1, “2-Aminopyrimidine Derivative” (priority 2004, published 2007) come the findings set out here.

Where only a bound is given, the exact number is not on record here.

One experiment addresses T1, rat IKK2 (Rattus norvegicus, UniProt Q9QY78).
T1 construct: ORF of rat IKK2 (GenBank AF115282) was cloned from a rat pancreas cDNA library; FLAG; made in house; host or cells: Sf9 insect cells
T1 sequence (Q9QY78 1-757): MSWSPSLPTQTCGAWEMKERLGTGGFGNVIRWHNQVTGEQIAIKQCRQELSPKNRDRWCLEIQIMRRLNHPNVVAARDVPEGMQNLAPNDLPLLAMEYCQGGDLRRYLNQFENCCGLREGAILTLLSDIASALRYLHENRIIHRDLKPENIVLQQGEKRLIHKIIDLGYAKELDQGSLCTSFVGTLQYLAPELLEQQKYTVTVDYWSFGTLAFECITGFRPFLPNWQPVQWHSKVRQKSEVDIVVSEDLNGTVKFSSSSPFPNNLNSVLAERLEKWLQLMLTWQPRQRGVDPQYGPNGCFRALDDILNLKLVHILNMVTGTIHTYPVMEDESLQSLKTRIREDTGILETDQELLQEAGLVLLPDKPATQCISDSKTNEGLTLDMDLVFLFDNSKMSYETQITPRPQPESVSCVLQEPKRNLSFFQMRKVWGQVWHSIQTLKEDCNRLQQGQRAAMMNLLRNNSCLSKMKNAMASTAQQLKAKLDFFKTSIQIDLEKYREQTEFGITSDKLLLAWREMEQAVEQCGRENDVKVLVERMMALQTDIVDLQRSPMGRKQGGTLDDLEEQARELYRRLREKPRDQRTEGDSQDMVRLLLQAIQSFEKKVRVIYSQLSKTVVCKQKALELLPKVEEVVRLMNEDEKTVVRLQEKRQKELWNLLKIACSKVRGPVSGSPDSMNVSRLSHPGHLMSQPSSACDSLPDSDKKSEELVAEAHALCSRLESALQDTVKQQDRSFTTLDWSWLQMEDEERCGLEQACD
Put plainly: Evaluation of rat IKK2 enzyme inhibition. Format: biochemical. Particulars: 0.5 μM ATP, probit analysis; read-out: IC50, rat IKK2 enzyme activity-inhibitory effect. The protocol: (1) Evaluation of Rat IKK2 Enzyme Inhibition:
ORF of rat IKK2 (GenBank AF115282) was cloned from a rat pancreas cDNA library, and with a FLAG-tag attached thereto, it was expressed in an Sf9 cell line. The cells were dissolved in a cytolytic solution (50 mM Tris-HCl pH 7.5, 0.15M NaCl, 1% NP-40, 10% glycerol, 1 mM EDTA, 1 mM EGTA pH 7.5, 1 mM Na3VO4, 5 mM p-nitrophenylphosphate, 10 mM O-glycerophosphate, 1 mM DTT, 1 mM PMSF, 10 μg/ml leupeptin, 10 μg/ml aprotinin (by Sigma)) to prepare a large amount of an cell extract, which was then purified on an anti-FLAG M2 antibody (by Sigma). This experimental operation was carried out in accordance with gene manipulation experiment manuals such as known methods (Sambrook, J. et al, Molecular Cloning-A Laboratory Manual, Cold Spring Harbor laboratory, NY, 1989) or the instructions attached to the reagents. The purified rat IKK2 was stored in an enzyme preservative (20 mM Tris-HCl pH 7.5, 10% glycerol, 12.5 mM β-glycerophosphate, 0.5 mM EDTA, 0.5 mM EGTA, 0.05% Brij35, 1 mM DTT, 1 mM PMSF (by Sigma)) at −80° C.
The purified rat IKK2, 1× enzymatic reaction buffer (20 mM Tris-HCl pH 7.5, 12.5 mM O-glycerophosphate, 20 mM MgCl2, 0.1 mM DTT), 0.01% BSA (by Sigma), 0.5 μM ATP, 0.2 μM biotinated substrate peptide (18th to 49th amino acid residues of rat I-kappa B alpha (GenBank Q63746)) and a test compound dissolved in DMSO were added to a 384-well plate (catalogue No. 3677, by Corning) to be 10 μl in total therein, and left at room temperature for 90 minutes. Next, […] of a reaction stopper (100 mM Hepse pH 8, 0.01% BSA, 0.8 M KF, 50 mM EDTA pH 8, 1% Triton X-100, europium cryptate-labeled anti-phosphorylation I-kappa B alpha-antibody (by Santa Cru), streptoavidin-labeled XL665 (by Nihon Schering)) was added thereto, kept warmed for 30 minutes, and then assayed with DISCOVERY (by Perkin-Elmer). The rat IKK2 enzyme activity-inhibitory effect of the tested compound was obtained according to the following formula. Every dose was tested independently three times. Inhibition (%) by Test Compound=((mean value with rat IKK2 but not with test compound)−(mean value with both test compound and rat IKK2))/((mean value with rat IKK2 but not with test compound)−(mean value not with rat IKK2))×100.

The subject of the next experiment is carrageenan paw edema. Put plainly: Rat carrageenan paw edema model. It counts as in vivo, Sprague-Dawley male rats. As to conditions: for edema inhibitory activity: 30 mg/kg oral administration, 3 hours after carrageenan. The protocol:
(3) Rat Carrageenan Paw Edema Model:
After their body weight was measured, Sprague-Dawley male rats (6-10 weeks age, male, by Nippon SLC) were divided into groups of 5 rats each in such a manner that the mean body weight of each group could be on the same level. Next, a test compound was orally administered to the rats (but 10 mL/kg of solvent alone was administered to those of the control group). 30 minutes after the test compound administration thereto, 100 μL of a 1% carrageenan (by Sigma Aldrich Japan) solution was subcutaneously injected to the sub-plantar of the right foot of each rat to induce inflammation. 3 hours after the inflammation induction, the rats were killed by deep anesthetization with ether, and their tissue below the right and left ankles was cut and collected and its weight was measured.
The test result was obtained as follows: In every rat, the weight of the left foot with no carrageenan injection thereto was subtracted from the weight of the right foot with carrageenan injection thereto, 3 hours after the carrageenan injection, thereby calculating the weight difference (g) therebetween. The edema inhibition in the test compound-administered rats was calculated relative to the mean value of the rats of the control group. For multi-group comparison between the control group and the test compound administration group, employed was a Dunnett multiple comparison test, in which the P value less than 0.05 was considered as statistical significance. All the above statistical analyses were carried out, using SAS.

Experiment [1] has as its system collagen-induced rheumatoid arthritis. Nature of the experiment: Rat collagen-induced rheumatoid arthritis model. Format: in vivo. As to conditions: oral administration at a dose of 30 mg/kg, 14 days. The protocol: (4) Collagen-Induced Rheumatoid Arthritis Model:
The effect to rat collagen-induced rheumatoid arthritis was evaluated according to a partial modification of the method described in The Japanese Journal of Pharmacology, 1997 August; 74(4): 313-22.
10 mL of a 1 mg/mL solution of bovine-derived type 2 collagen (by Cosmobio) diluted three-fold with acetic acid was mixed with adjuvant incomplete Freund (by Difco) in 1/1, and emulsified to give an emulsion for sensitization. The tail root of each rat in a control group and in a test compound administration group was disinfected with ethanol, and collagen-sensitized through intradermal injection of 0.4 mL of the emulsion containing […] of collagen thereinto to thereby induce rheumatoid arthritis. The rats in the non-sensitized group were not treated for collagen sensitization. To the rats of the control group, 10 mL/kg of 0.5% methyl cellulose was orally administered. To the rats of the test compound administration group, a compound of the invention was orally administered. One week after the sensitization, the administration continued for 14 days. The degree of inflammation was judged by measuring the rheumatoid arthritis scores of the four limbs of each rat (scoring). Briefly, the symptom of each articulation was visually grouped into the following four ranks (0: normal, 1: flare or light swelling, 2: middle swelling, 3: heavy swelling or joint ankylosis); and the total of the numerical data of the four limbs is referred to as the rheumatoid arthritis score. The scoring was carried out every other day after the development of rheumatoid arthritis. The cumulative rheumatoid arthritis score was calculated by totaling the rheumatoid arthritis scores on every scoring date of every individual. Relative to the mean cumulative rheumatoid arthritis score of rats of the control group, the inhibition by the those of the test compound administration group was calculated, and the mean value of the data was shown.

For the next experiment, the system named is TNF-α production. Nature of the experiment: Mouse LPS-induced TNF-α production model. It counts as in vivo, Balb/c female mice. Particulars: Mus musculus, po, 1.5 h, oral administration of 30 mg/kg, 60 minutes before LPS, blood 90 minutes after LPS; read-out: inhibition of plasma TNF-α. As to the method: (2) Mouse LPS-Induced TNF-α Production Model:
6 weeks old Balb/c female mice were placed into two groups, a control group and a test compound administration group. A solution containing 10 μg/mouse of LPS in 0.9% physiological salt was administered by intraperitoneal injection into the control mice. 60 minutes before the LPS administration, a compound of the invention was orally administered to the mice of the test compound administration group. Under anesthesia with diethyl ether, blood was collected from the posterior venous cavity of the mice of both the test compound administration group and the control group at 90 minutes after the LPS administration, and treated with heparin, and the plasma was separated from it through centrifugation at 10000 rpm at 4° C. for 10 minutes, and then diluted two-fold with PBS (pH 7.4).
The TNF-α concentration in the sample was determined with an ELISA kit (by Pharmingen, San Diego, Calif.). The inhibition by the mice of the test compound administration group relative to the mean inhibition by those of the control group was calculated as a mean value thereof.
The inhibition in oral administration of 30 mg/kg of compound (I) is shown below.

For the compound `Cc1ccc(-c2cc(C3CCCNC3)nc(N)n2)c(O)c1` (stereo not drawn) [Example 21], the half-maximal inhibitory concentration (IC50) (as a rule, the point on the concentration scale where inhibition reaches its midpoint) on rat IKK2 was at most 500 nM. The same compound displayed an edema inhibitory activity with carrageenan paw edema of 30%.
The corresponding values for `CCc1ccc(O)c(-c2cc(C3CCCNC3)nc(N)n2)c1` (stereo not drawn) [Example 23] are at most 500 nM and 50%.
In the case of `Nc1nc(-c2c(O)cccc2OCC2CC2)cc(C2CCCNC2)n1` (stereo not drawn) [Example 37], the IC50 on rat IKK2 was at most 500 nM. Moreover, the “inhibition of cumulative rheumatoid arthritis score” value in experiment [1] is listed as around 100%.
Regarding `Nc1nc(-c2c(O)cccc2OCC2CCC2)cc(C2CCCNC2)n1` (stereo not drawn) [Example 85], the 50% inhibitory concentration (IC50) at rat IKK2 was at most 500 nM. Further, the inhibition in vivo at 30 mg/kg in the experiment on TNF-α production is 85%. The “inhibition of cumulative rheumatoid arthritis score” value in experiment [1] was around 100%.
For `Nc1nc(-c2c(O)cccc2OCC2CCCC2)cc(C2CCCNC2)n1` (stereo not drawn) [Example 92], on rat IKK2, the IC50 was at most 500 nM. For the same compound, the “inhibition of cumulative rheumatoid arthritis score” value in experiment [1] was around 100%.
In the case of `CN(Cc1cnc2nc(N)nc(N)c2n1)c1ccc(C(=O)N[C@@H](CCC(=O)O)C(=O)O)cc1` [Methotrexate, reference compound], the “effect on carrageenan paw edema” value with carrageenan paw edema (dose not given) was “did not exhibit an effect”.
